Experimental data published in the NIST ThermoML archive (doi:10.1021/acs.jced.7b00377).
± gives the expanded uncertainty stated by the source.

Columns and labels:
[1] = Liquid; for mass density: 101.33 kPa, Pycnometric method; for vapor or sublimation pressure: Ebulliometric method (Recirculating still)
[2] = refractive index (Na D-line) (dimensionless); settings: 298.15 K; 101.33 kPa; Liquid; Standard Abbe refractometry

mass density ([1]; 293.15 K) | vapor or sublimation pressure ([1]; 381.08 K) | refractive index [2] | mass density ([1]; 298.15 K) | vapor or sublimation pressure ([1]; 390.9 K) | vapor or sublimation pressure ([1]; 320.54 K) | vapor or sublimation pressure ([1]; 335.1 K) | vapor or sublimation pressure ([1]; 344.53 K) | vapor or sublimation pressure ([1]; 351.76 K) | vapor or sublimation pressure ([1]; 359.38 K) | vapor or sublimation pressure ([1]; 370.93 K) | vapor or sublimation pressure ([1]; 379.83 K) | vapor or sublimation pressure ([1]; 386.16 K) | vapor or sublimation pressure ([1]; 393.18 K) | vapor or sublimation pressure ([1]; 397.46 K) | vapor or sublimation pressure ([1]; 401.87 K) | vapor or sublimation pressure ([1]; 405.77 K) | vapor or sublimation pressure ([1]; 410.02 K) | SMILES
801.8 ± 0.6 kg/m3 | 101.33 ± 0.7 kPa | 1.3939 ± 0.0004 | – | – | – | – | – | – | – | – | – | – | – | – | – | – | – | CC(C)CO [2-methyl-1-propanol]
– | – | 1.3971 ± 0.0004 | 809.5 ± 0.6 kg/m3 | 101.33 ± 0.7 kPa | – | – | – | – | – | – | – | – | – | – | – | – | – | CCCCO [butan-1-ol]
– | – | 1.3873 ± 0.0004 | 823.8 ± 0.6 kg/m3 | – | 5 ± 0.05 kPa | 10 ± 0.06 kPa | 15 ± 0.09 kPa | 20.02 ± 0.12 kPa | 26.67 ± 0.17 kPa | 39.9 ± 0.23 kPa | 53.33 ± 0.3 kPa | 64.8 ± 0.37 kPa | 79.6 ± 0.44 kPa | 89.9 ± 0.5 kPa | 101.33 ± 0.55 kPa | 112 ± 0.61 kPa | 125 ± 0.67 kPa | CCOCOCC(C)C [1-(ethoxymethoxy)-2-methylpropane]
